In patent US5977133A, “Pyridone antibiotic with improved safety profile” (priority 1998, dated 1999):
Counter-ions that a name gives are not always drawn.

Tests used:
Format in all cases: cell-based
M. avium = test: In vitro MIC, agar dilution; conditions: Mycobacterium avium
Enterococcus spp. (VanR) = test: In vitro MIC, agar dilution
Legionella spp. = test: microbe, parasite or virus in culture; conditions: Legionella
S. pneumoniae (CiproR) = test: In vitro MIC, agar dilution; conditions: Streptococcus pneumoniae, read-out: MIC Range
E. faecium (CiproS) = test: In vitro MIC, agar dilution; conditions: Enterococcus faecium
Enterobacter spp. = test: In vitro MIC, agar dilution
Shigella spp. = test: microbe, parasite or virus in culture; conditions: read-out: MIC Range
P. aeruginosa (CiproS) = test: In vitro MIC, agar dilution; conditions: Pseudomonas aeruginosa, P. aeruginosa (CiproS), 24 isolates
S. pyogenes = test: In vitro MIC, agar dilution; conditions: Streptococcus pyogenes
S. aureus (CiproS) = test: In vitro MIC, agar dilution; conditions: Staphylococcus aureus
M. pneumoniae = test: In vitro MIC, agar dilution; conditions: Mycoplasmoides pneumoniae; M. pneumoniae, 7 isolates; read-out: MIC Range
C. difficile = test: In vitro MIC, agar dilution; conditions: Clostridioides difficile
N. gonorrhoeae = test: In vitro MIC, agar dilution; conditions: Neisseria gonorrhoeae
S. pneumoniae (PenS) = test: In vitro MIC, agar dilution; conditions: Streptococcus pneumoniae
E. faecalis (VanS) = test: In vitro MIC, agar dilution; conditions: Enterococcus faecalis
H. influenzae = test: In vitro MIC, agar dilution; conditions: Haemophilus influenzae, H. influenzae, 18 isolates
E. faecium (CiproR) = test: In vitro MIC, agar dilution; conditions: Enterococcus faecium; E. faecium (CiproR), 2 isolates; read-out: MIC Range
E. faecium (VanS) = test: In vitro MIC, agar dilution; conditions: Enterococcus faecium
H. pylori = test: In vitro MIC, agar dilution; conditions: Helicobacter pylori
C. perfringens = test: microbe, parasite or virus in culture; conditions: Clostridium perfringens
S. epidermidis (CiproS) = test: In vitro MIC, agar dilution; conditions: Staphylococcus epidermidis
S. aureus (CiproR) = test: In vitro MIC, agar dilution; conditions: Staphylococcus aureus
S. pneumoniae (PenR) = test: In vitro MIC, agar dilution; conditions: Streptococcus pneumoniae
P. mirabilis = test: In vitro MIC, agar dilution; conditions: Proteus mirabilis
Providencia spp. = test: In vitro MIC, agar dilution
M. catarrhalis = test: In vitro MIC, agar dilution; conditions: Moraxella catarrhalis
Klebsiella spp. = test: In vitro MIC, agar dilution
P. aeruginosa (CiproR) = test: In vitro MIC, agar dilution; conditions: Pseudomonas aeruginosa, P. aeruginosa (CiproR), 20 isolates
Salmonella spp. = test: In vitro MIC, agar dilution; conditions: 23 isolates
Method in brief: (§1)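 Agar dilution plates were inoculated with ~10^4 CFU per spot by replicator, using 1:100 dilutions (1:10 for slow growers) and incubated at 35–37 °C for 20–24 h. MIC is the lowest concentration giving no growth, where slight haze or sparse colonies count as none, judged against a compound-free BHI agar control.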

E. coli = test: In vitro MIC, agar dilution; conditions: Escherichia coli, 25 isolates
Method in brief: as §1

Cc1c(N2C[C@@H](N)C3(CC3)C2)c(F)cn2c(=O)c(C(=O)O)cc(C3CC3)c12 [Example 5, 1-cyclopropyl-8-(7(S)-amino-5-azaspiror2.41heptvl)-7-fluoro-9-methyl4-oxo-4H-quinolizine-3-carboxylic acid hydrochloride]
MIC (M. avium; read-out: MIC Range): 0.25 to 4 µg/mL | MIC50 (M. avium; M. avium, 20 isolates, read-out: MIC50): 1 µg/mL | MIC90 (M. avium; M. avium, 20 isolates, read-out: MIC90): 2 µg/mL | MIC90 (Enterococcus spp. (VanR); Enterococcus): 0.5 µg/mL | MIC50 (Enterococcus spp. (VanR); Enterococcus spp. (VanR), 21 isolates, read-out: MIC50): 0.5 µg/mL | MIC (Enterococcus spp. (VanR); Enterococcus, read-out: MIC Range): 0.25 to 4 µg/mL | MIC50 (Legionella spp.): 0.25 µg/mL | MIC90 (Legionella spp.): 0.25 µg/mL | MIC (Legionella spp.; read-out: MIC Range): 0.12 to 0.25 µg/mL | MIC (S. pneumoniae (CiproR)): 0.06 to 0.12 µg/mL | MIC90 (E. faecium (CiproS)): 0.5 µg/mL | MIC (E. faecium (CiproS); read-out: MIC Range): 0.25 to 0.5 µg/mL | MIC50 (E. faecium (CiproS); E. faecium (CiproS), 16 isolates, read-out: MIC50): 0.5 µg/mL | MIC90 (Enterobacter spp.; Enterobacter): 0.03 µg/mL | MIC50 (Enterobacter spp.; Enterobacter spp., 35 isolates, read-out: MIC50): 0.015 µg/mL | MIC (Enterobacter spp.; Enterobacter spp., 35 isolates, read-out: MIC Range): 0.004 to 0.12 µg/mL | MIC (Shigella spp.): 0.001 to 0.008 µg/mL | MIC50 (P. aeruginosa (CiproS); read-out: MIC50): 0.12 µg/mL | MIC90 (P. aeruginosa (CiproS); read-out: MIC90): 1 µg/mL | MIC (P. aeruginosa (CiproS); read-out: MIC Range): 0.06 to 1 µg/mL | MIC50 (S. pyogenes): 0.03 µg/mL | MIC90 (S. pyogenes): 0.03 µg/mL | MIC (S. pyogenes; S. pyogenes, 21 isolates, read-out: MIC Range): 0.015 to 0.06 µg/mL | MIC90 (S. aureus (CiproS)): 0.015 µg/mL | MIC50 (S. aureus (CiproS); S. aureus (CiproS), 21 isolates, read-out: MIC50): 0.015 µg/mL | MIC (S. aureus (CiproS); S. aureus (CiproS), 21 isolates, read-out: MIC Range): 0.008 to 0.03 µg/mL | MIC (M. pneumoniae): 0.015 to 0.03 µg/mL | MIC90 (C. difficile): 0.25 µg/mL | MIC (C. difficile; read-out: MIC Range): 0.12 to 0.25 µg/mL | MIC50 (C. difficile; C. difficile, 10 isolates, read-out: MIC50): 0.25 µg/mL | MIC90 (N. gonorrhoeae): 0.015 µg/mL | MIC50 (N. gonorrhoeae; N. gonorrhoeae, 12 isolates, read-out: MIC50): 0.002 µg/mL | MIC (N. gonorrhoeae; N. gonorrhoeae, 12 isolates, read-out: MIC Range): 0.002 to 0.015 µg/mL | MIC90 (S. pneumoniae (PenS)): 0.06 µg/mL | MIC50 (S. pneumoniae (PenS); S. pneumoniae (PenS), 20 isolates, read-out: MIC50): 0.06 µg/mL | MIC (S. pneumoniae (PenS); S. pneumoniae (PenS), 20 isolates, read-out: MIC Range): 0.03 to 0.06 µg/mL | MIC90 (E. faecalis (VanS)): 0.25 µg/mL | MIC (E. faecalis (VanS); read-out: MIC Range): 0.06 to 0.25 µg/mL | MIC50 (E. faecalis (VanS); E. faecalis (VanS), 17 isolates, read-out: MIC50): 0.12 µg/mL | MIC50 (H. influenzae; read-out: MIC50): 0.002 µg/mL | MIC90 (H. influenzae; read-out: MIC90): 0.008 µg/mL | MIC (H. influenzae; read-out: MIC Range): 0.001 to 0.008 µg/mL | MIC (E. faecium (CiproR)): 0.5 to 4 µg/mL | MIC90 (E. faecium (VanS)): 0.25 µg/mL | MIC (E. faecium (VanS); read-out: MIC Range): 0.06 to 0.5 µg/mL | MIC50 (E. faecium (VanS); E. faecium (VanS), 11 isolates, read-out: MIC50): 0.25 µg/mL | MIC50 (H. pylori): 0.03 µg/mL | MIC90 (H. pylori): 0.06 µg/mL | MIC (H. pylori; H. pylori, 17 isolates, read-out: MIC Range): 0.015 to 0.06 µg/mL | MIC50 (C. perfringens): 0.06 µg/mL | MIC90 (C. perfringens; C. perfringens, 13 isolates): 0.12 µg/mL | MIC (C. perfringens; read-out: MIC Range): 0.06 to 0.12 µg/mL | MIC90 (S. epidermidis (CiproS)): 0.03 µg/mL | MIC50 (S. epidermidis (CiproS); S. epidermidis (CiproS), 23 isolates, read-out: MIC50): 0.015 µg/mL | MIC (S. epidermidis (CiproS); S. epidermidis (CiproS), 23 isolates, read-out: MIC Range): 0.004 to 0.03 µg/mL | MIC90 (S. aureus (CiproR)): 0.25 µg/mL | MIC50 (S. aureus (CiproR); S. aureus (CiproR), 25 isolates, read-out: MIC50): 0.12 µg/mL | MIC (S. aureus (CiproR); S. aureus (CiproR), 25 isolates, read-out: MIC Range): 0.03 to 0.5 µg/mL | MIC90 (S. pneumoniae (PenR)): 0.06 µg/mL | MIC50 (S. pneumoniae (PenR); S. pneumoniae (PenR), 25 isolates, read-out: MIC50): 0.06 µg/mL | MIC (S. pneumoniae (PenR); S. pneumoniae (PenR), 25 isolates, read-out: MIC Range): 0.03 to 0.06 µg/mL | MIC50 (P. mirabilis): 0.03 µg/mL | MIC90 (P. mirabilis): 0.06 µg/mL | MIC (P. mirabilis; read-out: MIC Range): 0.015 to 0.12 µg/mL | MIC90 (Providencia spp.; Providencia): 0.06 µg/mL | MIC50 (Providencia spp.; Providencia spp., 28 isolates, read-out: MIC50): 0.015 µg/mL | MIC (Providencia spp.; Providencia spp., 28 isolates, read-out: MIC Range): 0.008 to 0.25 µg/mL | MIC90 (M. catarrhalis): 0.03 µg/mL | MIC50 (M. catarrhalis; M. catarrhalis, 18 isolates, read-out: MIC50): 0.015 µg/mL | MIC (M. catarrhalis; M. catarrhalis, 18 isolates, read-out: MIC Range): 0.015 to 0.03 µg/mL | MIC50 (Klebsiella spp.; Klebsiella): 0.03 µg/mL | MIC90 (Klebsiella spp.; Klebsiella): 0.06 µg/mL | MIC (Klebsiella spp.; Klebsiella spp., 29 isolates, read-out: MIC Range): 0.002 to 0.12 µg/mL | MIC50 (P. aeruginosa (CiproR); read-out: MIC50): 8 µg/mL | MIC90 (P. aeruginosa (CiproR); read-out: MIC90): 16 µg/mL | MIC (P. aeruginosa (CiproR); read-out: MIC Range): 4 to 16 µg/mL | MIC (Salmonella spp.): 0.004 to 0.12 µg/mL | MIC50 (Salmonella spp.; read-out: MIC50): 0.015 µg/mL | MIC90 (Salmonella spp.; read-out: MIC90): 0.03 µg/mL | MIC (E. coli): 0.004 to 0.015 µg/mL | MIC50 (E. coli; read-out: MIC50): ≤ 0.004 µg/mL | MIC90 (E. coli; read-out: MIC90): 0.015 µg/mL
